Measurements published in publication PMC7604895, “Identification of a Novel Substrate-Derived Spermine Oxidase Inhibitor” (Acta Naturae, 2020).

Assays:
Type in all cases: biochemical
spermine oxidase (SMOX) [1] = molecular target: T1, spermine oxidase (SMOX) (Homo sapiens, UniProt Q9NWM0); assay: luminol-HRP chemiluminescent H2O2 assay with purified SMOX, […] Spm substrate (positive control inhibitor)
T1 construct: human SMOX expressed from pET15b in E. coli BL21(DE3), polyhistidine tag removed by thrombin
T1 sequence (Q9NWM0 whole entry): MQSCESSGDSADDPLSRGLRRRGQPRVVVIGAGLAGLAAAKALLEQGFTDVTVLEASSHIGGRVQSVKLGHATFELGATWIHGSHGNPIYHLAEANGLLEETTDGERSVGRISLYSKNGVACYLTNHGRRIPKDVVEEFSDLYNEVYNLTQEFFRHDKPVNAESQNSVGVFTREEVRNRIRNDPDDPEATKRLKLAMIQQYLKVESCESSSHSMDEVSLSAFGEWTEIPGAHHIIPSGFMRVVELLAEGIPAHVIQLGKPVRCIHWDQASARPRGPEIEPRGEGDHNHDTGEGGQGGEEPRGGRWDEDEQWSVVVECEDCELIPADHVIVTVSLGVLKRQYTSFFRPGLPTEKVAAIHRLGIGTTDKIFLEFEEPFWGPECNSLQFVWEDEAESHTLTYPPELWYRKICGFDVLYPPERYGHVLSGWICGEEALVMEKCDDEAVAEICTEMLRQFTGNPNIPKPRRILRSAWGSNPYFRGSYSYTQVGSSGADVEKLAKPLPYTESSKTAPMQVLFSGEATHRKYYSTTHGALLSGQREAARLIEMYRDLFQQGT

spermine oxidase (SMOX) [2] = molecular target: T1, spermine oxidase (SMOX); assay: luminol-HRP chemiluminescent H2O2 assay with purified SMOX, […] Spm substrate, […] min preincubation
spermine oxidase (SMOX) [3] = molecular target: T1, spermine oxidase (SMOX); assay: substrate turnover by purified SMOX, luminol-HRP chemiluminescent H2O2 detection

With `C=C=CCNCCCCNCC=C=C` [MDL72527, N1,N4-(bis(2,3-butadienyl)-1,4-butanediamine)] the IC50 (spermine oxidase (SMOX) [1]) was 100 µM.
`C=C(CN)CNCCCCNCC(=C)CN` [2,11-Met2-Spm, 1,12-diamino-2,11-bis(methylidene)-4,9-diazadodecane] gave an IC50 (spermine oxidase (SMOX) [2]) of 169 µM.
For `NCCCNCCCCNCCCN` [Spm, spermine], the “substrate turnover by purified SMOX, luminol-HRP chemiluminescent H2O2 detection” value (spermine oxidase (SMOX) [3]) was “SMOX activity was measured using a chemiluminescent enzyme-based assay detecting the formation of H2O2 in the presence of Spm”.
